Experiments:
[1] = molecular target: T1, human metastin receptor hOT7T175 (Homo sapiens, UniProt Q969F8, L364H); assay: binding inhibiting activity: 125I-metastin (40-54) binding to cell membrane fraction of h175 KB34 cells; settings: room temperature 60 minutes, read-out: binding inhibiting activity, represented by the IC50 value
T1 construct: encoding the entire length of human metastin receptor hOT7T175; expressed in transfected cells; host or cells: CHO/dhFr- cells (ATCC #CRL-9096) stably transfected with pAKKO-hOT7T175; clone h175-16 was used as whole cells for FLIPR
T1 sequence (Q969F8 whole entry L364H): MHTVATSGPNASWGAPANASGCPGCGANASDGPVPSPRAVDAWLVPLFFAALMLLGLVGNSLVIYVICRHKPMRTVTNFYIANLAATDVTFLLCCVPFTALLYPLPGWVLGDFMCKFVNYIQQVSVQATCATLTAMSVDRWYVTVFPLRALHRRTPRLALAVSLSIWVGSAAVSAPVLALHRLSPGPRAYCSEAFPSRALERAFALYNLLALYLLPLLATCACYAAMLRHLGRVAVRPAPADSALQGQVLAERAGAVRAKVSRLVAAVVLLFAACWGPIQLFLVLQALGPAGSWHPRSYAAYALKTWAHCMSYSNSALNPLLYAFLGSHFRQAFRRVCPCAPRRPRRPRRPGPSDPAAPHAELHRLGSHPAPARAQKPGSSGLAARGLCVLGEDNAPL
Experimental: cDNA fragments (SEQ ID NO: 2) encoding the entire length of human metastin receptor hOT7T175 were incorporated into expression vector pAKKO1.11H to produce animal cell expression plasmids pAKKO-hOT7T175. CHO/dhFr-cells (ATCC, #CRL-9096) were seeded onto 6 cm culture dishes (Becton Dickinson) at a density of 0.3×10^6 cells/dish, and cultured in the conditions of 48 hours, 37° C. and 5% CO2. 5 μg pAKKO-hOT7T175 plasmid DNA was transfected to the resultant cells by a known method (described in Example 3 of WO 00/24890) using the Cellphect Transfection Kit (Amersham, #27-9268-01). The DNA-transfected cells were cultured in the Dulbecco's modified Eagle medium (DMEM) (Sigma, #D6046) containing 10% dialyzed FBS (Biowest, #S180D), 1× Non-Essential Amino Acid (Invitrogen, #11140-050) and 50 μg/ml Gentamycin (Invitrogen, #15750-060; and cell strains stably expressing the plasmid genes were selected. The obtained 41 clones were treated with the FLIPR assay (in accordance with the method described in Example 3 of WO 00/24890), and the reactivity to the human metastin […] (Nos. 40 to 54 of the human metastin sequence; Peptide Institute, Inc., #4389-v) was evaluated. In the end, h175 KB34 cell strains were selected. By substantially the same method, h175-16 cell strains were also produced.
The h175 KB34 cells were cultured to be on the stage of 40-50% confluency using a cell factory (Nunc, #164327), and then cells were recovered in the following method.
First, the medium was disposed, and the cells were washed twice with 200 ml EDTA/PBS(−). Another 200 ml of EDTA/PBS(−) was added, and the cells were kept still for 20 minutes at room temperature until being peeled off. The cells were recovered into four 50 ml tubes (Becton Dickinson, #352070), and centrifuged (2,000 rpm, 10 min., 4° C.) by a reduced performance centrifuge (TOMY, RL-101). The supernatant was disposed, and the pellets in the four tubes were each suspended with 10 ml EDTA/PBS(−) and collected into one tube (Becton Dickinson, #352070). The pellet was further centrifuged (2,000 rpm, 10 min., 4° C.). The resultant pellet was suspended with 20 ml ice-cooled homogenizer buffer [10 mM NaHCO3, 2 mM EGTA, 0.2 mM magnesium acetate, 10 μg/ml Leupeptin (Peptide Institute, Inc., #4041), 10 μg/ml E-64 (Peptide Institute, Inc., # 4096), 100 μg/ml o-phenanthroline (Dojindo Laboratories), 90 μg/ml PMSF (Wako Pure Chemical Industries, Ltd.), 10 μg/ml Pepstatin A (Peptide Institute, Inc., #4397), pH7.3]. The cell suspension was homogenized 3 times, each for 30 seconds, using a Polytron homogenizer. The resultant homogenate was centrifuged (2,500 rpm, 10 min, 4° C.) using a high performance refrigerated centrifuge (Hitachi, Ltd., CR26H). The supernatant was recovered into a super-centrifuge tube, and super-centrifuged (30,000 rpm, 60 min, 4° C.) using a super-centrifuge (Hitachi, Ltd., SCP70H). 3 ml homogenizer buffer was added to the resultant pellet, and the pellet was suspended by pipetting. 3 ml glycerol (Wako Pure Chemical Industries, Ltd.) was added to the resultant suspension and diluted 2-folds. The resultant substance was used as a cell membrane fraction of the h175 KB34 cells. Each […] of the membrane fraction was put into a 1.5 ml tube (Eppendorf, #0030120.086), stored in a freezer (−30 C) so as not to be frozen, and used for a binding assay.
An assay buffer was prepared on the day of the test by adding, to each 100 ml of an assay basic buffer [20 mM Tris, 2.5 mM Magnesium Acetate, 2 mM EGTA, pH 7.4], 1 mg Leupeptin (Peptide Institute, Inc., 4041), 1 mg E-64 (Peptide Institute, Inc., 4096), 10 mg o-phenanthroline (Dojindo Laboratories), 9 mg PMSF (Wako Pure Chemical Industries, Ltd.) and 1 mg Pepstatin A (Peptide Institute, Inc., 4397). The prepared assay buffer was stored at 4° C. until being used. When the measurement was to be performed with no BSA, the above-described assay buffer was used. […]

SMILES	melting point [°C]	IC50 [1] [µM]
Cc1ccc(-c2cc(-c3cccc(NC(=O)CCN)c3)c(C#N)c(NC(=O)c3cccs3)n2)c(O)c1.Cl [Example 57, N-{4-[3-(β-alanylamino)phenyl]-3-cyano-6-(2-hydroxy-4-methylphenyl)pyridin-2-yl}thiophene-2-carboxamide hydrochloride]	204 to 210	≤ 10
Cl.N#Cc1c(-c2cccc(NC(=O)CCN)c2)cc(-c2ccc(Br)cc2O)nc1NC(=O)c1cccs1 [Example 61, N-{4-[3-(β-alanylamino)phenyl]-6-(4-bromo-2-hydroxyphenyl)-3-cyanopyridin-2-yl}thiophene-2-carboxamide hydrochloride]	203 to 211	≤ 10
Cl.N#Cc1c(-c2cccc(NC(=O)CCN)c2)cc(-c2ccc(Cl)cc2O)nc1NC(=O)c1ccco1 [Example 63, N-{4-[3-(β-alanylamino)phenyl]-6-(4-chloro-2-hydroxyphenyl)-3-cyanopyridin-2-yl}-2-furamide hydrochloride]	206 to 212	≤ 10
Cl.N#Cc1c(-c2cccc(NC(=O)CCN)c2)cc(-c2ccc(C(F)(F)F)cc2O)nc1NC(=O)c1cccs1 [Example 64, N-{4-[3-(β-alanylamino)phenyl]-3-cyano-6-[2-hydroxy-4-(trifluoromethyl)phenyl]pyridin-2-yl}thiophene-2-carboxamide hydrochloride]	209 to 216	≤ 10
Cl.N#Cc1c(-c2cccc(NC(=O)CCN)c2)cc(-c2ccc(F)cc2O)nc1NC(=O)c1ccco1 [Example 68, N-{4-[3-(β-alanylamino)phenyl]-3-cyano-6-(4-fluoro-2-hydroxyphenyl)pyridin-2-yl}-2-furamide hydrochloride]	269 to 270	≤ 10
COc1ccccc1C(=O)Nc1nc(-c2ccc(Cl)cc2O)cc(-c2cccc(C(=O)NCCCn3ccnc3)c2)c1C#N.Cl [Example 70, N-{6-(4-chloro-2-hydroxyphenyl)-3-cyano-4-[3-({[3-(1H-imidazole-1-yl)propyl]amino}carbonyl)phenyl]pyridin-2-yl}-2-methoxybenzamide hydrochloride]	234 to 237	≤ 10
CC(C)(CN)CNC(=O)c1cccc(-c2cc(-c3ccc(F)cc3O)nc(NC(=O)c3ccco3)c2C#N)c1.Cl [Example 77, N-[4-(3-{[(3-amino-2,2-dimethylpropyl)amino]carbonyl}phenyl)-3-cyano-6-(4-fluoro-2-hydroxyphenyl)pyridin-2-yl]-2-furamide hydrochloride]	256 to 257	≤ 10
Cl.N#Cc1c(-c2cccc(C(=O)NCCCn3ccnc3)c2)cc(-c2ccc(F)cc2O)nc1NC(=O)c1cccs1 [Example 78, N-{3-cyano-6-(4-fluoro-2-hydroxyphenyl)-4-[3-({[3-(1H-imidazole-1-yl)propyl]amino}carbonyl)phenyl]pyridin-2-yl}thiophene-2-carboxamide hydrochloride]	195 to 196	≤ 10

Now from value to molecule:

melting point [°C]	IC50 [1] [µM]	SMILES
215 to 218	≤ 10	Cl.N#Cc1c(-c2cccc(C(=O)N3CCC(N)CC3)c2)cc(-c2ccccc2O)nc1NC(=O)c1cccs1 [Example 5, N-[4-{3-[(4-aminopiperidine-1-yl)carbonyl]phenyl}-3-cyano-6-(2-hydroxyphenyl)pyridin-2-yl]thiophene-2-carboxamide hydrochloride]
254 to 256	≤ 10	Cl.N#Cc1c(-c2cccc(C(=O)NC3CCNCC3)c2)cc(-c2ccccc2O)nc1NC(=O)c1cccs1 [Example 7, N-(3-cyano-6-(2-hydroxyphenyl)-4-{3-[(piperidin-4-ylamino)carbonyl]phenyl}pyridin-2-yl)thiophene-2-carboxamide hydrochloride]
181 to 186	≤ 10	Cl.N#Cc1c(-c2cccc(CNC(=O)CN)c2)cc(-c2ccccc2O)nc1NC(=O)c1cccs1 [Example 43, N-[3-cyano-4-{3-[(glycylamino)methyl]phenyl}-6-(2-hydroxyphenyl)pyridin-2-yl]thiophene-2-carboxamide hydrochloride]
173 to 180	≤ 10	Cl.N#Cc1c(-c2cccc(CNC(=O)CCN)c2)cc(-c2ccccc2O)nc1NC(=O)c1cccs1 [Example 44, N-[4-{3-[(β-alanylamino)methyl]phenyl}-3-cyano-6-(2-hydroxyphenyl)pyridin-2-yl]thiophene-2-carboxamide hydrochloride]
144 to 151	≤ 10	N#Cc1c(-c2cccc(CNC(=N)N)c2)cc(-c2ccccc2O)nc1NC(=O)c1cccs1.O=C(O)C(F)(F)F [Example 45, N-{4-[3-({[amino(imino)methyl]amino}methyl)phenyl]-3-cyano-6-(2-hydroxyphenyl)pyridin-2-yl}thiophene-2-carboxamide trifluoroacetate]
195 to 200	≤ 10	Cl.N#Cc1c(-c2cccc(NC(=O)C3(N)CCC3)c2)cc(-c2ccc(Cl)cc2O)nc1NC(=O)c1ccco1 [Example 65, N-[4-(3-{[(1-aminocyclobutyl)carbonyl]amino}phenyl)-6-(4-chloro-2-hydroxyphenyl)-3-cyanopyridin-2-yl]-2-furamide hydrochloride]
173 to 174	≤ 10	Cl.N#Cc1c(-c2cccc(C(=O)NCCCn3ccnc3)c2)cc(-c2ccc(F)cc2O)nc1NC(=O)c1ccco1 [Example 67, N-{3-cyano-6-(4-fluoro-2-hydroxyphenyl)-4-[3-({[3-(1H-imidazole-1-yl)propyl]amino}carbonyl)phenyl]pyridin-2-yl}-2-furamide hydrochloride]
190 to 196	≤ 10	Cl.N#Cc1c(-c2cccc(NC(=O)C3(N)CC3)c2)cc(-c2ccc(Cl)cc2O)nc1NC(=O)c1ccco1 [Example 69, N-[4-(3-{[(1-aminocyclopropyl)carbonyl]amino}phenyl)-6-(4-chloro-2-hydroxyphenyl)-3-cyanopyridin-2-yl]-2-furamide hydrochloride]
210 to 217	≤ 10	COc1ccccc1C(=O)Nc1nc(-c2ccc(Cl)cc2O)cc(-c2cccc(C(=O)NCC3CCCCN3)c2)c1C#N.Cl (stereo not drawn) [Example 71, N-[6-(4-chloro-2-hydroxyphenyl)-3-cyano-4-(3-{[(piperidine-2-ylmethyl)amino]carbonyl}phenyl)pyridin-2-yl]-2-methoxybenzamide hydrochloride]
225 to 226	≤ 10	Cl.N#Cc1c(-c2cccc(C(=O)NC3CCNC3)c2)cc(-c2ccc(F)cc2O)nc1NC(=O)c1ccco1 (stereo not drawn) [Example 76, N-(3-cyano-6-(4-fluoro-2-hydroxyphenyl)-4-{3-[(pyrrolidin-3-ylamino)carbonyl]phenyl}pyridin-2-yl)-2-furamide hydrochloride]

Reference: US20090156646A1, “PYRIDYLPHENOL COMPOUND AND USE THEREOF” (TAKEDA PHARMACEUTICAL COMPANY LIMITED, priority 2005, published 2009)
